According to PubChem BioAssay AID1645866 (Buhrlage Lab, Dana-Farber Cancer Institute and Novartis …, 2021):
Calls of active or inactive are those of the source.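 How the source made its calls: active means in confirmatory dose-response testing, peak deubiquitinase inhibition of 30% or more; inactive means the rest.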

Target: Ubiquitin carboxyl-terminal hydrolase 28 (Homo sapiens) (UniProt Q96RU2)
Experiment: Concentration-response biochemical assay confirming initial hits as inhibitors of ubiquitin-specific protease 28 (AID 1645866)
Details: purified USP28, ubiquitin-rhodamine fluorescence, 30 min

Ubiquitin carboxyl-terminal hydrolase 28 (Homo sapiens), sequence (Q96RU2 whole entry, looked up): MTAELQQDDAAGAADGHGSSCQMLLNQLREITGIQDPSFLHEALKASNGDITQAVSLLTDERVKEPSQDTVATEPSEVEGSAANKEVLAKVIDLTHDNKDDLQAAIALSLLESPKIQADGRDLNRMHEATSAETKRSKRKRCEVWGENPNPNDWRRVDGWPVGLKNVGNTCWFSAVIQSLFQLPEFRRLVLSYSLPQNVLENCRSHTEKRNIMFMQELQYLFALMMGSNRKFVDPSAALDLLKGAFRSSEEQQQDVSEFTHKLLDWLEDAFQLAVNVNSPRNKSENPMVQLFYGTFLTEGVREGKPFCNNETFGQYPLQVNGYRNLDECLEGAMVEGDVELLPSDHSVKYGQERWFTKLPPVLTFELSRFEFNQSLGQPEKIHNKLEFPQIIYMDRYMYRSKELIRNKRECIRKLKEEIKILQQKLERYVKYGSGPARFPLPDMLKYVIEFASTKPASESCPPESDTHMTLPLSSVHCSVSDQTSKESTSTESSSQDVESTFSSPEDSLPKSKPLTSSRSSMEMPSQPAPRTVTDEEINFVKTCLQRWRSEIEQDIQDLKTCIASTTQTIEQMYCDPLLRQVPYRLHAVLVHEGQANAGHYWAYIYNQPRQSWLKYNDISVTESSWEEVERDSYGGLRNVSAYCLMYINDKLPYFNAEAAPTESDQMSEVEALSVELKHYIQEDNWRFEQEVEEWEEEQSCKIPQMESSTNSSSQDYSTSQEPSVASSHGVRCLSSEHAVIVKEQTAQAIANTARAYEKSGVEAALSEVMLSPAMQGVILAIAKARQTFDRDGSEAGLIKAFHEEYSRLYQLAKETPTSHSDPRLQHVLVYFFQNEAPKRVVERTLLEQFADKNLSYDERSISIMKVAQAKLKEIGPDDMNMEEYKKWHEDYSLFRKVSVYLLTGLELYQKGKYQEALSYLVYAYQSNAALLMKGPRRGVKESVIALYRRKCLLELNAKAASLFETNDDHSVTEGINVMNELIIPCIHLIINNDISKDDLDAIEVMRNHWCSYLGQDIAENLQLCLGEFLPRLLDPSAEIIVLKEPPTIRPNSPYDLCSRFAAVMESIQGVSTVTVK

| Structure (SMILES) | IC50 |
| --- | --- |
| Cc1ccc(Cl)cc1NC(=O)COC(=O)c1ccc2ccccc2n1 | > 50 µM (inactive) |
| Cc1nc2ccccc2nc1SCC(=O)Nc1ccc2c(c1)OCO2 | 25.1 µM |
| Cc1ccc(CNC(=O)c2ccc(N3C(=O)[C@@H]4Cc5ccccc5CN4C3=O)cc2)cc1 | 29.7 µM |
| CC(=O)N1CCCC(c2nc(C)cc(-c3cc(F)ccc3C(=O)O)n2)C1 (stereo not given) | > 50 µM (inactive) |
| O=C(CN1C(=O)C2CCCC2=Nc2ccccc21)Nc1ccc(F)cc1F (stereo not given) | 26.2 µM |
| CCn1c(SCC(=O)c2c(N)n(CC(C)C)c(=O)n(C)c2=O)nnc1-c1ccccc1 | 13.9 µM |
| COc1ccc(OC)c(NC(=O)C2=C(C)Nc3ncnn3C2c2ccccc2OCc2ccc(C)cc2)c1 (stereo not given) | 19.9 µM |
| O=C(Cc1cc(-c2ccc(F)cc2)on1)NCc1ccccc1 | 22.1 µM |
| CCCNC(=O)c1ccn(-c2ccc3ccc(-c4cnn(C)c4)cn23)n1 | > 50 µM (inactive) |
| Cc1cc(C)nc(SCCn2c(N3CCC(Cc4ccccc4)CC3)nc3c2c(=O)n(C)c(=O)n3C)n1 | > 50 µM (inactive) |
| Cc1ccc(Cl)cc1NC(=O)c1cc(-c2ccccn2)n[nH]1 | 13.4 µM |
| CC(=O)c1cccc(NC(=O)c2ccc3[nH]c4c(c3c2)CC(C)CC4)c1 (stereo not given) | > 50 µM (inactive) |
| COc1cccc(-c2nc(C(N)=O)c3[nH]c(=O)n(-c4cccc(Cl)c4)c3n2)c1OC | > 50 µM (inactive) |
| CS(=O)(=O)N1CCCc2cc(C(=O)Nc3ccc4c(c3)OCO4)ccc21 | 4.54 µM |
| CC(C(=O)NCc1ccc(F)cc1)n1cccc1C(=O)c1ccccc1 (stereo not given) | > 50 µM (inactive) |
| COc1cccc(-n2c(CNCc3cccnc3)nc3ccc([N+](=O)[O-])cc3c2=O)c1 | 20.2 µM |
| CCCOc1ccc(C(=O)Nc2ccc(S(=O)(=O)Nc3cc(C)nc(C)n3)cc2)cc1 | 31.5 µM |
| O=C1C/C(=C\c2cccc(Cl)c2)Cc2ccccc21 | 13 µM |
| CC(C)N1CC[C@@H]2[C@H](C1)CN2C(=O)Nc1cccc(F)c1 | > 50 µM (inactive) |
| COc1cc(NC(=O)c2cc(-c3ccncc3)n(-c3ccc(F)cc3)n2)cc(OC)c1 | 12 µM |
| COc1ccc(OC)c(NC(=O)C2Oc3ccccc3NC2=O)c1 (stereo not given) | 8.5 µM |
| Cc1ccc(C)c(Cn2nnc3c(=O)[nH]c(C4CCN(S(=O)(=O)c5ccc(S(=O)(=O)NC6CC6)cc5)CC4)nc32)c1 | 9.09 µM |
| O=C(Nc1ccc(N2CCOCC2)cc1)c1ccc(-c2ccc(N3CCCC3)nn2)cc1 | > 50 µM (inactive) |
| CCOc1ccc(NC(=O)c2cc(-c3ccccc3)c(N3CCOCC3)s2)cc1 | 14 µM |
| CCC1=C(c2ccc(C)cc2)S(=O)(=O)NC1=NCC(=O)NC(C)c1ccccc1 (stereo not given) | 19.5 µM |

| Structure (SMILES) | IC50 |
| --- | --- |
| O=C1CC(C(=O)Nc2ccccc2F)n2nc(-c3ccccc3)cc2N1 (stereo not given) | 21.9 µM |
| COC(=O)c1cc(C#N)c(NCc2ccccc2)nc1C | 45.2 µM |
| O=C1Oc2nc3ccccc3cc2CN1Cc1ccco1 | 18.4 µM |
| CNC(=O)c1cc2nc(N(C)C)n(-c3ccc(F)cc3)c2s1 | 11.6 µM |
| O=C(Nc1ccc2c(c1)OCO2)C1CCN(Cc2nc3ccccc3s2)CC1 | 2.4 µM |
| CCn1c(=O)c(=O)[nH]c2cc(C(=O)Nc3cccc(-c4csc(C)n4)c3)ccc21 | 1.99 µM |
| Cn1c(=O)[nH]c(=O)c2c1nc1n(CCc3ccccc3)c(-c3ccccc3)cn21 | 42.2 µM |
| O=C(NCc1ccc2c(c1)OCO2)c1cc(-c2cc(Cl)ccc2O)n[nH]1 | 12 µM |
| COc1ccc(C(=O)CCN2CCOCC2)cc1[N+](=O)[O-] | > 50 µM (inactive) |
| O=C1NC(=O)/C(=C/c2ccc(OC(=O)c3ccc(Cl)cc3Cl)cc2)N1 | 4.46 µM |
| COc1ccccc1NC(=O)CNC(=O)c1nn(-c2ccc(OC)c(OC)c2)c(=O)c2ccccc12 | 24.8 µM |
| Cc1nc2ccc(NC(=O)COc3ccccc3[N+](=O)[O-])cc2s1 | 11.8 µM |
| COc1ccc(CCNC(=O)CCCn2c(SCC(=O)NCc3ccco3)nc3ccccc3c2=O)cc1OC | 35.7 µM |
| COc1ccc(Cl)cc1-n1nnc(C(=O)N2CCc3ccccc3C2)c1C | > 50 µM (inactive) |
| Cn1c(COc2ccccc2)nnc1SCC(=O)Nc1ccc(N2CCOCC2)cc1 | 2.43 µM |
| O=C(C1CCCN(S(=O)(=O)N2CCCCCC2)C1)N1CCN(c2ccccc2)CC1 (stereo not given) | > 50 µM (inactive) |
| Cc1cn[nH]c1C1COCCN1C(=O)c1ccc2ncccc2c1 (stereo not given) | > 50 µM (inactive) |
| CCc1cc2c(=O)[nH]c(Cc3ccc(OC)cc3)nc2s1 | 19.7 µM |
| O=C(NCCc1ccccc1)c1nnn(Cc2cccc(Cl)c2)c1-n1cccc1 | 1.37 µM |
| COc1cc(-c2ccno2)ccc1S(=O)(=O)Nc1ccccc1Cl | 4.26 µM |
| O=C(Nc1nnc2n1CCCS2)c1cccc(Cl)c1 | 1.19 µM |
| O=C(CSc1nnc(CNC(=O)c2ccccc2F)o1)Nc1ccc(OC(F)(F)F)cc1 | 28.9 µM |
| Nc1ccc(NC(=O)c2cc3c(s2)CCC3)cc1[N+](=O)[O-] | 16.9 µM |
| Cc1ccccc1OCCSc1nc2ccccc2n1CC(=O)NC1CC1 | 20.7 µM |
| CNC(=O)CC1NC(=O)c2csc(n2)-c2ccc(-c3nc(C4=NC(C(=O)N5CCCC5C(N)=O)CO4)cs3)nc2-c2csc(n2)-c2csc(n2)C(C(O)c2ccccc2)NC(=O)CNC(=O)c2nc(sc2COC)C(C(C)C)NC(=O)c2nc1sc2C (stereo not given) | 11.4 µM |

| Structure (SMILES) | IC50 |
| --- | --- |
| O=C(COc1cccc(-n2cnnn2)c1)Nc1ccc2c(c1)OCCO2 | 31.4 µM |
| Cc1nn(C)c2c1[C@@H](c1ccc(F)c(Br)c1)[C@H](NC(=O)c1ccccc1)C(=O)N2 | 3.79 µM |
| COc1ccc(Cl)cc1NC(=O)Cn1c(=O)cc(C)c2c(C)nn(-c3ccccc3)c21 | 5.44 µM |
| Cc1cc(C)n(-c2cccc(C(=O)Nc3ccc4c(c3)CCN4S(C)(=O)=O)c2)n1 | 3.69 µM |
| Cc1cc(C)c2nc3c(cc2c1)CN(Cc1ccco1)C(=O)O3 | > 50 µM (inactive) |
| Cc1nc(C(=O)N[C@@H](C)C(=O)NCc2ccc3c(c2)OCO3)cc2c1[nH]c1ccccc12 | 22.5 µM |
| Cc1ccccc1NC(=O)c1ccc(N2CCCCC2)nn1 | > 50 µM (inactive) |
| Cc1cc(O)c2c3c(c(O)cc2c1)C(=O)c1c(O)cccc1C3=O | 1.89 µM |
| CCn1cc(-c2nc(-c3ccccn3)no2)c(=O)c2cc(F)ccc21 | 26.5 µM |
| COc1ccc(C(=O)CSc2nnc(-c3cccnc3)n2-c2ccccc2)cc1 | > 50 µM (inactive) |
| Cc1c(C(=O)c2ccccc2)c2ccccn2c1CCc1ccccn1 | > 50 µM (inactive) |
| CN1C(=O)c2cc(NC(=O)c3ccccc3Cl)ccc2Oc2ccccc21 | 1.25 µM |
| C=C1CCC2[C@](C)(CCC[C@]2(C)C(=O)OC)[C@H]1CCc1ccoc1C[N+](C)(C)Cc1ccccc1 (stereo not given in full) | 20.1 µM |
| COc1cccc(N2CCN(C(=O)CCNS(=O)(=O)c3ccc4c(c3)CCC(=O)N4)CC2)c1 | > 50 µM (inactive) |
| CCOC(=O)c1cccc(NC(=O)Nc2cccn3nc(C)nc23)c1 | 0.766 µM |
| Cc1ccc(C)c(NS(=O)(=O)c2cc(-c3cnc(C4CC4)o3)ccc2C)c1 | 34.7 µM |
| CCOc1ccc(C2=NCCNC3=C2C(c2ccccc2)N(c2ccccc2)C3=O)cc1 (stereo not given) | > 50 µM (inactive) |
| CCN(c1ccc(NC(=O)CSc2nnc(-c3ccccc3)n2-c2ccc(OC)c(OC)c2)cc1)C(C)C | 6.1 µM |
| Cc1c(-c2nnc(-c3ccccn3)o2)nnn1-c1cccc(Cl)c1 | 25.6 µM |
| CCCCCCCc1cc(O)cc(OC(=O)c2c(CCCCCCC)cc(O)cc2O[C@H]2O[C@H](C(O)CO)[C@@H](O)[C@@H]2O)c1 (stereo not given in full) | 2.18 µM |
| Nc1ccccc1SCc1noc(-c2cccs2)n1 | 6.61 µM |
| Cc1ccc(OC(=O)c2cn(-c3ccccc3)nc2-c2cccnc2)cc1 | > 50 µM (inactive) |
| CCOCCCn1c(SCC(=O)Nc2ccccc2C(F)(F)F)nc2ccccc2c1=O | 17 µM |
| CN(C)C(=O)CSc1nnc(-c2cccc(Cl)c2)n1-c1ccc(Cl)c(C(F)(F)F)c1 | 5.78 µM |
| Cc1ccc(NC(=O)/C=C/c2cccc(C(F)(F)F)c2)c(O)c1 | 16.2 µM |

| Structure (SMILES) | IC50 |
| --- | --- |
| NS(=O)(=O)c1ccc(NS(=O)(=O)c2ccc(NC(=O)Nc3ccc(Cl)cc3)cc2)cc1 | 3.85 µM |
| NC(=O)Cn1c(=O)n(Cc2ccc(C(=O)NC3CCCC3)cc2)c(=O)c2ccccc21 | > 50 µM (inactive) |
| CC1(C)CC(n2[nH]c(=O)c3c2NC(=O)CSC3c2ccc(OCc3ccccc3)cc2)CCO1 (stereo not given) | 17.7 µM |
| CCc1ccc(C2c3c(oc4ccccc4c3=O)C(=O)N2c2nncs2)cc1 (stereo not given) | > 50 µM (inactive) |
| COc1ccc(-c2ocnc2C(=O)NCc2ccc(F)cc2)cc1 | 8.2 µM |
| COc1ccc(-c2nonc2NC(=O)C(c2ccccc2)c2ccccc2)cc1OC | > 50 µM (inactive) |
| C[C@]12C(=O)N(c3ccc(C(=O)NCc4ccc(F)cc4)cc3)C(=O)N1CCc1c2[nH]c2ccccc12 | 40.6 µM |
| CCn1ccc2c(cc(C(=O)Nc3cc(F)ccc3F)n2C)c1=O | 2.22 µM |
| COc1ccc(NC(=O)Cn2c(CS(=O)(=O)c3ccc(C)cc3)nc3ccccc32)cc1 | 12.4 µM |
| Cc1ccc(-c2nc(NC(=O)COc3ccc(Cl)cc3)no2)cc1 | 4.74 µM |
| Cc1ccc(NC(=O)c2ccc3c(c2)N(S(C)(=O)=O)CC3)cc1 | 25.2 µM |
| COc1ccc2nc(NC(=O)C(CC(C)C)NS(=O)(=O)c3ccc4c(c3)CCN4C(C)=O)sc2c1 (stereo not given) | 26 µM |
| O=C(CNC(=O)c1cc2ccccc2o1)Nc1ccc2c(c1)OCCO2 | 18.3 µM |
| O=C(Nc1ccccc1)c1cn(-c2cc(N3CCCC3)ncn2)cn1 | > 50 µM (inactive) |
| Fc1ccc(CSc2nnc(-c3ccccn3)n2Cc2ccco2)cc1 | 21.9 µM |
| CCOC(=O)Nc1ccc(N2CCn3c(nc4ccccc43)C2)cc1OC | > 50 µM (inactive) |
| O=C(Cc1ccccc1F)Nc1nc(-c2ccco2)c(-c2ccco2)s1 | > 50 µM (inactive) |
| c1cnc(-c2n[nH]c(C3CCN(C4CCNC4)CC3)n2)cn1 (stereo not given) | > 50 µM (inactive) |
| COc1cc(/C=C/C(=O)OCC(=O)Nc2ccc([N+](=O)[O-])cc2OC)ccc1O | 18.8 µM |
| CSc1cccc(NC(=O)CNC(=O)c2cc3ccccc3o2)c1 | 46.2 µM |
| COc1cc(OC)cc(-c2nc(-c3cn(-c4cccc(F)c4)nn3)no2)c1 | 0.483 µM |
| CC(OC(=O)c1c2c(nc3ccccc13)CCCCC2)C(=O)Nc1ccc2ccccc2c1 (stereo not given) | 5.1 µM |
| Cc1nc(-c2ccc(-n3cc(C(=O)Nc4cccc(F)c4)c(C)n3)cc2)no1 | 42.5 µM |
| COc1c(O)c(O)c2c(=O)cc(-c3ccc(O)cc3)oc2c1OC | 27.2 µM |
| COc1ccc(CCn2cnc3c([nH]c4ccccc43)c2=O)cc1 | 12.5 µM |
